# Assay results reported in the SangsterLogP compilation.
row,SMILES,logP
1,CCOP(=O)(SC(C)CC)N1CCSC1=O (centres undefined),1.68
2,O=C(NC(=O)c1c(F)cccc1F)Nc1ccc(Cl)c(Oc2ncc(C(F)(F)F)cc2Cl)c1,5.1
3,CCc1cccc(C)c1N(COC(C)C)C(=O)CCl,3.5
4,COP(=O)(OC)SCn1c(=O)oc2cc(Cl)cnc21,1.05
5,O=C(NC(=O)c1c(F)cccc1F)Nc1ccc(OC(F)(F)C(F)OC(F)(F)F)c(Cl)c1 (centres undefined),5.27
6,Fc1cccc(F)c1-c1nnc(-c2ccccc2Cl)nn1,3.3
7,Cc1cccc(C)c1N(C(=O)CCl)C1CCOC1=O (centres undefined),1.39
8,CN(C)S(=O)(=O)N(SC(F)(Cl)Cl)c1ccccc1,3.7
9,Clc1ccc(CS/C(Cn2cncn2)=N\c2ccc(Cl)cc2Cl)cc1,4.94
